Laboratory results: PubChem BioAssay (NCI)
Values joined by “and” are separate entries in the source; they are usually repeats but may differ in a detail not shown here. Equal values may be shown once.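 These data come from cells grown in 96-well plates and exposed to compound for 48 hours at five concentrations. GI50 marks 50% less growth. TGI denotes the concentration required for complete inhibition of growth.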

Experiments:
Test in all cases: NCI-60 cell line screen, 48 h
HCC-2998 colon = tested on: HCC-2998 colon
RXF-631 renal = tested on: RXF-631 renal
SF-295 CNS = tested on: SF-295 CNS
LXFL 529 NSCLC = tested on: LXFL 529 NSCLC
A498 renal = tested on: A498 renal
OVCAR-4 ovarian = tested on: OVCAR-4 ovarian
OVCAR-3 ovarian = tested on: OVCAR-3 ovarian
SNB-78 CNS = tested on: SNB-78 CNS
A549 NSCLC = tested on: A549 NSCLC
OVCAR-5 ovarian = tested on: OVCAR-5 ovarian
SR leukemia = tested on: SR leukemia
K-562 leukemia = tested on: K-562 leukemia
LOX IMVI melanoma = tested on: LOX IMVI melanoma
ACHN renal = tested on: ACHN renal
DLD-1 colon = tested on: DLD-1 colon
IGROV1 ovarian = tested on: IGROV1 ovarian
UO-31 renal = tested on: UO-31 renal
HOP-92 NSCLC = tested on: HOP-92 NSCLC
RXF 393 renal = tested on: RXF 393 renal
HCT-116 colon = tested on: HCT-116 colon
COLO 205 colon = tested on: COLO 205 colon
786-0 renal = tested on: 786-0 renal
SW-620 colon = tested on: SW-620 colon
RPMI-8226 leukemia = tested on: RPMI-8226 leukemia
M19-MEL melanoma = tested on: M19-MEL melanoma
HOP-18 NSCLC = tested on: HOP-18 NSCLC
HCT-15 colon = tested on: HCT-15 colon
SN12C renal = tested on: SN12C renal
MOLT-4 leukemia = tested on: MOLT-4 leukemia
KM20L2 colon = tested on: KM20L2 colon
HT29 colon = tested on: HT29 colon
HOP-62 NSCLC = tested on: HOP-62 NSCLC
SNB-19 CNS = tested on: SNB-19 CNS
CAKI-1 renal = tested on: CAKI-1 renal
MALME-3M melanoma = tested on: MALME-3M melanoma
HL-60(TB) leukemia = tested on: HL-60(TB) leukemia
UACC-257 melanoma = tested on: UACC-257 melanoma
OVCAR-8 ovarian = tested on: OVCAR-8 ovarian
EKVX NSCLC = tested on: EKVX NSCLC
SK-MEL-28 melanoma = tested on: SK-MEL-28 melanoma
CCRF-CEM leukemia = tested on: CCRF-CEM leukemia
TK-10 renal = tested on: TK-10 renal
U251 CNS = tested on: U251 CNS
SF-268 CNS = tested on: SF-268 CNS
SNB-75 CNS = tested on: SNB-75 CNS
SK-MEL-2 melanoma = tested on: SK-MEL-2 melanoma
DMS 273 small cell lung = tested on: DMS 273 small cell lung
NCI-H23 lung = tested on: NCI-H23 lung
M14 melanoma = tested on: M14 melanoma
NCI-H226 lung = tested on: NCI-H226 lung
NCI-H522 lung = tested on: NCI-H522 lung
SK-MEL-5 melanoma = tested on: SK-MEL-5 melanoma
XF 498 CNS = tested on: XF 498 CNS
KM12 colon = tested on: KM12 colon
NCI-H460 lung = tested on: NCI-H460 lung
SK-OV-3 ovarian = tested on: SK-OV-3 ovarian
SF-539 CNS = tested on: SF-539 CNS
UACC-62 melanoma = tested on: UACC-62 melanoma
DMS 114 small cell lung = tested on: DMS 114 small cell lung

With COc1cc2c(c(OC)c1OC)-c1ccc(SC)c(=O)cc1[C@@H](NCc1ccc(F)cc1)CC2 the TGI (HCC-2998 colon) was 11.3 µM, the TGI (RXF-631 renal) was 52.4 µM and the TGI (SF-295 CNS) was 22 µM and > 100 µM. The TGI (LXFL 529 NSCLC) was 10.1 µM and 18.2 µM, the TGI (A498 renal) was 0.0265 µM and the TGI (OVCAR-4 ovarian) was > 100 µM. For the same molecule, the TGI (OVCAR-3 ovarian) was < 0.0075 µM, the TGI (SNB-78 CNS) was 65.6 µM and > 100 µM and the TGI (A549 NSCLC) was 75 µM and > 100 µM. The TGI (OVCAR-5 ovarian) was 75 µM and > 100 µM, the TGI (SR leukemia) was 12.8 µM and the TGI (K-562 leukemia) was 75 µM and > 100 µM. For the same molecule, the TGI (LOX IMVI melanoma) was 11.9 µM and 13.5 µM, the TGI (ACHN renal) was 75 µM and 49.2 µM and the TGI (DLD-1 colon) was 75 µM and > 100 µM. For the same molecule, the TGI (IGROV1 ovarian) was 75 µM, the GI50 (UO-31 renal) was < 0.0075 µM and the TGI (UO-31 renal) was 75 µM and 95.9 µM. For the same molecule, the TGI (HOP-92 NSCLC) was 75 µM and 7.99 µM, the TGI (RXF 393 renal) was 75 µM and 19.5 µM and the TGI (HCT-116 colon) was 0.079 µM. For the same molecule, the TGI (COLO 205 colon) was < 0.0075 µM, the TGI (786-0 renal) was 16.8 µM and 25 µM and the TGI (SW-620 colon) was 18.8 µM and > 100 µM. The TGI (RPMI-8226 leukemia) was 31.2 µM, the TGI (M19-MEL melanoma) was 75 µM and 13.3 µM and the GI50 (HOP-18 NSCLC) was > 100 µM. For the same molecule, the TGI (HOP-18 NSCLC) was 51.3 µM and > 100 µM, the TGI (HCT-15 colon) was 7.64 µM and the TGI (SN12C renal) was 20.8 µM. The TGI (MOLT-4 leukemia) was 75 µM and > 100 µM, the TGI (KM20L2 colon) was < 0.0075 µM and the TGI (HT29 colon) was < 0.0075 µM. For the same molecule, the TGI (HOP-62 NSCLC) was 75 µM and 20.6 µM, the TGI (SNB-19 CNS) was 75 µM and the GI50 (CAKI-1 renal) was < 0.0075 µM. For the same molecule, the TGI (CAKI-1 renal) was 51.7 µM and > 100 µM, the TGI (MALME-3M melanoma) was 34.2 µM and 28.4 µM and the TGI (HL-60(TB) leukemia) was > 100 µM. The TGI (UACC-257 melanoma) was 44.1 µM and 55.7 µM, the TGI (OVCAR-8 ovarian) was 75 µM and the GI50 (EKVX NSCLC) was < 0.0075 µM. The TGI (EKVX NSCLC) was 75 µM and > 100 µM, the TGI (SK-MEL-28 melanoma) was 75 µM and the TGI (CCRF-CEM leukemia) was 10.2 µM and > 100 µM. The GI50 (TK-10 renal) was 0.182 µM and the TGI (TK-10 renal) was 75 µM and > 100 µM.

In the case of NC1NC=NC2C1N=CN2C1OC(CO)C2[O][Sn][O]C21 (centres undefined), the GI50 (HCC-2998 colon) is reported as > 100 µM, the TGI (HCC-2998 colon) is reported as > 100 µM and the GI50 (U251 CNS) is reported as > 100 µM. For the same molecule, the TGI (U251 CNS) was > 100 µM, the GI50 (SF-295 CNS) was > 100 µM and the TGI (SF-295 CNS) was > 100 µM. The GI50 (LXFL 529 NSCLC) was > 100 µM, the TGI (LXFL 529 NSCLC) was > 100 µM and the GI50 (A498 renal) was > 100 µM. The TGI (A498 renal) was > 100 µM, the GI50 (OVCAR-4 ovarian) was > 100 µM and the TGI (OVCAR-4 ovarian) was > 100 µM. For the same molecule, the GI50 (SF-268 CNS) was > 100 µM, the TGI (SF-268 CNS) was > 100 µM and the GI50 (OVCAR-3 ovarian) was > 100 µM. The TGI (OVCAR-3 ovarian) was > 100 µM, the GI50 (SNB-75 CNS) was > 100 µM and the TGI (SNB-75 CNS) was > 100 µM. The GI50 (SNB-78 CNS) was > 100 µM, the TGI (SNB-78 CNS) was > 100 µM and the GI50 (A549 NSCLC) was > 100 µM. The TGI (A549 NSCLC) was > 100 µM, the GI50 (OVCAR-5 ovarian) was > 100 µM and the TGI (OVCAR-5 ovarian) was > 100 µM. The GI50 (SK-MEL-2 melanoma) was > 100 µM, the TGI (SK-MEL-2 melanoma) was > 100 µM and the GI50 (K-562 leukemia) was > 100 µM. The TGI (K-562 leukemia) was > 100 µM, the GI50 (LOX IMVI melanoma) was > 100 µM and the TGI (LOX IMVI melanoma) was > 100 µM. The GI50 (ACHN renal) was > 100 µM, the TGI (ACHN renal) was > 100 µM and the GI50 (IGROV1 ovarian) was > 100 µM. For the same molecule, the TGI (IGROV1 ovarian) was > 100 µM, the GI50 (UO-31 renal) was > 100 µM and the TGI (UO-31 renal) was > 100 µM. For the same molecule, the GI50 (DMS 273 small cell lung) was > 100 µM, the TGI (DMS 273 small cell lung) was > 100 µM and the GI50 (HOP-92 NSCLC) was 27.5 µM. For the same molecule, the TGI (HOP-92 NSCLC) was > 100 µM, the GI50 (RXF 393 renal) was > 100 µM and the TGI (RXF 393 renal) was > 100 µM. The GI50 (NCI-H23 lung) was > 100 µM, the TGI (NCI-H23 lung) was > 100 µM and the GI50 (HCT-116 colon) was > 100 µM. The TGI (HCT-116 colon) was > 100 µM, the GI50 (M14 melanoma) was > 100 µM and the TGI (M14 melanoma) was > 100 µM. The GI50 (COLO 205 colon) was > 100 µM, the TGI (COLO 205 colon) was > 100 µM and the GI50 (786-0 renal) was > 100 µM. For the same molecule, the TGI (786-0 renal) was > 100 µM, the GI50 (NCI-H226 lung) was > 100 µM and the TGI (NCI-H226 lung) was > 100 µM. The GI50 (SW-620 colon) was > 100 µM, the TGI (SW-620 colon) was > 100 µM and the GI50 (RPMI-8226 leukemia) was > 100 µM. The TGI (RPMI-8226 leukemia) was > 100 µM, the GI50 (M19-MEL melanoma) was > 100 µM and the TGI (M19-MEL melanoma) was > 100 µM. The GI50 (NCI-H522 lung) was > 100 µM, the TGI (NCI-H522 lung) was > 100 µM and the GI50 (HOP-18 NSCLC) was > 100 µM. The TGI (HOP-18 NSCLC) was > 100 µM, the GI50 (HCT-15 colon) was 0.384 µM and the TGI (HCT-15 colon) was > 100 µM. For the same molecule, the GI50 (SN12C renal) was 1.98 µM, the TGI (SN12C renal) was > 100 µM and the GI50 (SK-MEL-5 melanoma) was > 100 µM. The TGI (SK-MEL-5 melanoma) was > 100 µM, the GI50 (MOLT-4 leukemia) was > 100 µM and the TGI (MOLT-4 leukemia) was > 100 µM. The GI50 (XF 498 CNS) was 1.15 µM, the TGI (XF 498 CNS) was 52.7 µM and the GI50 (KM20L2 colon) was > 100 µM. The TGI (KM20L2 colon) was > 100 µM, the GI50 (HT29 colon) was > 100 µM and the TGI (HT29 colon) was > 100 µM. For the same molecule, the GI50 (HOP-62 NSCLC) was > 100 µM, the TGI (HOP-62 NSCLC) was > 100 µM and the GI50 (SNB-19 CNS) was > 100 µM. The TGI (SNB-19 CNS) was > 100 µM, the GI50 (CAKI-1 renal) was > 100 µM and the TGI (CAKI-1 renal) was > 100 µM. For the same molecule, the GI50 (KM12 colon) was > 100 µM, the TGI (KM12 colon) was > 100 µM and the GI50 (NCI-H460 lung) was > 100 µM. The TGI (NCI-H460 lung) was > 100 µM, the GI50 (SK-OV-3 ovarian) was > 100 µM and the TGI (SK-OV-3 ovarian) was > 100 µM. The GI50 (MALME-3M melanoma) was > 100 µM, the TGI (MALME-3M melanoma) was > 100 µM and the GI50 (HL-60(TB) leukemia) was > 100 µM. The TGI (HL-60(TB) leukemia) was > 100 µM, the GI50 (UACC-257 melanoma) was > 100 µM and the TGI (UACC-257 melanoma) was > 100 µM. The GI50 (OVCAR-8 ovarian) was > 100 µM, the TGI (OVCAR-8 ovarian) was > 100 µM and the GI50 (EKVX NSCLC) was > 100 µM. For the same molecule, the TGI (EKVX NSCLC) was > 100 µM, the GI50 (SF-539 CNS) was > 100 µM and the TGI (SF-539 CNS) was > 100 µM. The GI50 (UACC-62 melanoma) was > 100 µM, the TGI (UACC-62 melanoma) was > 100 µM and the GI50 (SK-MEL-28 melanoma) was > 100 µM. For the same molecule, the TGI (SK-MEL-28 melanoma) was > 100 µM, the GI50 (CCRF-CEM leukemia) was > 100 µM and the TGI (CCRF-CEM leukemia) was > 100 µM. For the same molecule, the GI50 (DMS 114 small cell lung) was > 100 µM, the TGI (DMS 114 small cell lung) was > 100 µM and the GI50 (TK-10 renal) was > 100 µM. The TGI (TK-10 renal) was > 100 µM.
